Experimental findings from ChEMBL document CHEMBL3769343, “Spiromastilactones: A new class of influenza virus inhibitors from deep-sea fungus” (Eur J Med Chem, 2016) are described below.

SMILES strings stand for the structures. Where only a bound is given, the exact number is not on record here.

One assay concerns Influenza A virus. The assay can be described thus: Antiviral activity against amantadine-resistant influenza A virus HN/1222 (H3N2) infected in dog MDCK cells assessed as inhibition of virus induced cytopathic effect after 40 hrs by Cell-Titer-Glo assay. Format: functional, organism-based.
As usually defined, the EC50 is the concentration at which the effect is half-maximal. For the compound `CCOC(=O)C1=C[C@@H](OC(CC)CC)[C@H](NC(C)=O)[C@@H](N)C1` [OSELTAMIVIR], the EC50 was greater than 200 µM.
Turning to `CCCc1c(Cl)c(O)cc(OC)c1Oc1c(Cl)c(O)c(Cl)c2c1C(=O)O[C@@H]2CC`, the EC50 amounted to 38.5 µM.
On to `NC(=O)c1ncn([C@@H]2O[C@H](CO)[C@@H](O)[C@H]2O)n1` [RIBAVIRIN], for which the EC50 stood at 3.56 µM.
As for `NC12CC3CC(CC(C3)C1)C2` [AMANTADINE], the EC50 is greater than 20.5 µM.

Another assay relates to Influenza A virus. The assay can be described thus: Antiviral activity against oseltamivir-resistant influenza A virus LN/1109 (H1N1) infected in dog MDCK cells assessed as inhibition of virus induced cytopathic effect after 40 hrs by Cell-Titer-Glo assay. Format: functional, organism-based.
Turning to `CCOC(=O)C1=C[C@@H](OC(CC)CC)[C@H](NC(C)=O)[C@@H](N)C1` [OSELTAMIVIR], the EC50 came to 0.82 µM.
As for `CCCc1c(Cl)c(O)cc(OC)c1Oc1c(Cl)c(O)c(Cl)c2c1C(=O)O[C@@H]2CC`, the EC50 was found to be 33.5 µM.
The same measure, in the same setting: the value for `NC(=O)c1ncn([C@@H]2O[C@H](CO)[C@@H](O)[C@H]2O)n1` [RIBAVIRIN] was 1.05 µM; that for `NC12CC3CC(CC(C3)C1)C2` [AMANTADINE] was greater than 200 µM.

A further assay relates to Influenza A virus. The assay can be described thus: Antiviral activity against amantadine-resistant influenza A virus JX/312 (H3N2) infected in dog MDCK cells assessed as inhibition of virus induced cytopathic effect after 40 hrs by Cell-Titer-Glo assay. Type of assay: functional, organism-based. (In general: Protection from cytopathic effect is a common read-out in antiviral testing.)
As for `CCOC(=O)C1=C[C@@H](OC(CC)CC)[C@H](NC(C)=O)[C@@H](N)C1` [OSELTAMIVIR], the EC50 turned out to be 9.75 µM.
Still for that read-out and setting: the value for `CCCc1c(Cl)c(O)cc(OC)c1Oc1c(Cl)c(O)c(Cl)c2c1C(=O)O[C@@H]2CC` was 35.3 µM; that for `NC(=O)c1ncn([C@@H]2O[C@H](CO)[C@@H](O)[C@H]2O)n1` [RIBAVIRIN] was 1.43 µM; that for `NC12CC3CC(CC(C3)C1)C2` [AMANTADINE] was 4.28 µM.
